Experimental data: PubChem BioAssay (NCI)
Where “and” joins values, the source holds several entries; their conditions need not be identical. Identical values can stand only once.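 Method: 48-hour compound exposure of cells in 96-well plates, five concentrations, linear interpolation of endpoints. Here, GI50 denotes the concentration required for 50% inhibition of growth. TGI is the concentration that stops growth completely.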

Columns and labels:
Assay in all cases: NCI tumour cell line growth inhibition, 48 h
DLD-1 colon = tested on: DLD-1 colon
DMS 114 small cell lung = tested on: DMS 114 small cell lung
DMS 273 small cell lung = tested on: DMS 273 small cell lung
HOP-18 NSCLC = tested on: HOP-18 NSCLC
KM20L2 colon = tested on: KM20L2 colon
LXFL 529 NSCLC = tested on: LXFL 529 NSCLC
RXF-631 renal = tested on: RXF-631 renal
XF 498 CNS = tested on: XF 498 CNS
MDA-N = tested on: MDA-N
P388 leukemia = tested on: P388 leukemia
P388/ADR leukemia = tested on: P388/ADR leukemia
SN12K1 renal = tested on: SN12K1 renal

Structure (SMILES) | TGI (DLD-1 colon) | TGI (DMS 114 small cell lung) | TGI (DMS 273 small cell lung) | TGI (HOP-18 NSCLC) [µM] | TGI (KM20L2 colon) | TGI (LXFL 529 NSCLC) | TGI (RXF-631 renal) [µM] | TGI (XF 498 CNS) | TGI (MDA-N) [µM] | also measured
Cc1ccc(/C=C2\CCCCC2=O)cc1 | > 100 µM | > 100 µM | > 100 µM | > 100 | > 100 µM | > 100 µM | > 100 | > 100 µM |  | 
O=[N+]([O-])c1ccc2c(c1)C(N1CCN(CCO)CC1)Cc1ccc(F)cc1S2 (centres undefined) |  |  |  |  |  |  |  |  | 24.1 | 
C[C@]12CCC(=O)C=C1C[C@@H](O)[C@@H]1[C@@H]2CC[C@@]2(C)[C@H]1CC[C@]2(C)O |  |  |  |  |  |  |  |  | > 100 | 
C=C1C(=O)O[C@@H]2/C=C(/C)[C@@H](OC(C)=O)C[C@@H](O)/C(C)=C\[C@@H](OC(=O)[C@]3(C)O[C@@H]3C)[C@@H]12 |  |  |  |  |  |  |  |  | 30.1 | 
CC(C)N1CC2CC(CN(C(=O)c3ccc(Cl)cc3)C2)C1 |  | > 100 µM | > 100 µM | > 100 | > 100 µM | > 100 µM | > 100 | > 100 µM |  | 
O=C1OC(OC/C(Br)=C(\Br)COC2OC(=O)C(Cl)=C2Cl)C(Cl)=C1Cl (centres undefined) |  |  |  |  |  |  |  |  | 14.3 | 
Oc1c(C(Nc2ccccn2)c2ccccc2)ccc2cccnc12 (centres undefined) |  |  |  |  |  |  |  |  | > 100 | 
OC(c1cc(C(F)(F)F)nc2c(Cl)cc(Cl)cc12)C1CCCCN1 (centres undefined) |  |  |  |  |  |  |  |  | > 100 | 
CCCCCCCCCC1CC(=O)OC2=C1C(=O)CCC2 (centres undefined) | > 100 µM | > 100 µM | > 100 µM | > 100 | > 100 µM | > 100 µM | > 100 | > 100 µM |  | 
COc1ccc(N=NC2=C(O)CCC2=O)cc1 | > 100 µM | > 100 µM | > 100 µM | > 100 |  |  | > 100 |  |  | 
COc1ccc(C(C2=C(O)CC(C)OC2=O)C2=C(O)CC(C)OC2=O)cc1 (centres undefined) | > 100 µM | > 100 µM | > 100 µM |  | > 100 µM | > 100 µM | > 100 |  |  | 
CCO/C=C\C12CCCC1NC(c1ccccc1)(c1ccccc1)O2 (centres undefined) | > 100 µM | 79.5 µM | > 100 µM |  | 57.9 µM | 74.5 µM |  |  |  | 
COc1cc2[nH]c3c(c2cc1OC)CCN[C@@]31CC[C@@]2(CC3c4c(cc(OC)c(O)c42)CCN3C)C[C@@H]1OC (some centres undefined) | > 100 µM | 37.2 µM | > 100 µM | > 81.7 | 86.3 µM | > 100 µM | 25.2 | 32.4 µM | 35.9 | 
OC1OCC(COc2cc(Cl)c(Cl)cc2Cl)OC1O (centres undefined) | > 100 µM | 88.3 µM | > 100 µM | 90.8 | > 100 µM | > 100 µM | > 100 |  |  | 
NC(=O)NNC/C(Cl)=C(\Cl)C(=O)O | > 100 µM | > 100 µM | > 100 µM | > 100 | > 100 µM | > 100 µM |  | > 100 µM |  | 
[N-]=[N+]=C(C(=O)CN1CCCC1=O)S(=O)(=O)c1ccccc1 |  |  |  |  |  |  |  |  | > 100 | 
COc1cc(C2c3cc4c(cc3[C@@H](NC3CCN(Cc5ccccc5)CC3)C3COC(=O)[C@H]23)OCO4)cc(OC)c1O (some centres undefined) | 3.11 µM and 2.26 µM | 1.96 µM and 0.316 µM | 0.558 µM and 0.18 µM |  | 3.28 µM and 0.841 µM | 4.4 µM and 2.72 µM |  | 2.34 µM and 1.4 µM |  | GI50 (DMS 114 small cell lung): 0.169 µM and 0.0639 µM; GI50 (DMS 273 small cell lung): 0.114 µM and 0.0219 µM; GI50 (LXFL 529 NSCLC): 1.1 µM and 0.438 µM; GI50 (XF 498 CNS): 0.377 µM and 0.132 µM
O=C(NC1CCC[C@H]1OC(=O)c1ccccc1)c1ccccc1 (some centres undefined) | > 100 µM |  | > 100 µM |  |  |  | > 100 | > 100 µM |  | 
Clc1ccc2c(NC3CCC(N4CCCCC4)CC3)ccnc2c1 (centres undefined) |  |  |  |  |  |  |  |  | 33.2 | 

Structure (SMILES) | TGI (DLD-1 colon) | TGI (DMS 114 small cell lung) | TGI (DMS 273 small cell lung) | TGI (HOP-18 NSCLC) [µM] | TGI (KM20L2 colon) | TGI (LXFL 529 NSCLC) | TGI (RXF-631 renal) [µM] | TGI (XF 498 CNS) | TGI (MDA-N) [µM] | also measured
O=C(Nc1ccc(Br)cc1)C(=O)C(C(=O)c1ccc(Cl)c(Cl)c1)C1OC(=O)c2ccccc21 (centres undefined) | 39.6 µM | 28.6 µM | 60 µM | 77 | > 100 µM | 23.2 µM |  | 96.2 µM |  | 
CCCCCCCCCCCCCCNCC(OC)OC | 28.6 µM | 29.3 µM | 33 µM | 26.4 | 28.8 µM | 30 µM | 31.2 | 31.7 µM |  | 
CC(=O)OC1CC2(C)C(=CC1C1SCCS1)CCC1C2CCC2(C)C(OC(C)=O)CCC12 (centres undefined) |  |  |  |  |  |  |  |  | > 100 | 
Nc1nc2cc(Cl)ccc2n1N |  |  |  |  |  |  |  |  | > 100 | 
CC1C(c2ccccc2)N(C)C(c2ccccc2)C(C)C1(O)c1ccccc1 (centres undefined) | > 100 µM | > 100 µM | > 100 µM |  | > 100 µM | > 100 µM |  |  |  | 
C/C(=N\N=C(N)N)C(CN1CCOCC1)C(c1ccccc1)c1c(O)c2ccccc2oc1=O (centres undefined) | > 100 µM | > 100 µM | > 100 µM | > 100 | > 100 µM | > 100 µM |  | > 100 µM |  | 
O=C1c2ccccc2C(=O)N1CC#CCO |  |  | > 100 µM |  |  | > 100 µM | > 100 | > 100 µM |  | 
CC1(C)CC(=O)C(CC2C(=O)CCCC2=O)C(=O)C1 | > 100 µM | > 100 µM | > 100 µM | > 100 | > 100 µM | > 100 µM |  | > 100 µM |  | 
O=C(CC12C3C4C1C1C2C3C41CC(=O)NO)NO (centres undefined) | > 100 µM | 60.6 µM | > 100 µM |  | > 100 µM | > 100 µM | > 100 | > 100 µM |  | 
Cc1ccc2ccccc2c1CSc1nc(N)nc2c1ncn2CC(C)C |  |  |  |  |  |  |  |  | > 100 | 
C=CCC1(CN(C)C)CC/C(=C\c2ccc3c(c2)OCO3)C1=O (centres undefined) | 81.1 µM |  | > 100 µM | > 100 | > 100 µM | > 100 µM | 78.4 |  |  | 
CC1(c2ccc(F)cc2)C2C(=O)NC(=O)C1C(=O)NC2=O (centres undefined) | > 100 µM | > 100 µM | > 100 µM |  | > 100 µM | > 100 µM |  | > 100 µM |  | 
CCC(=O)OCOc1ccc(/C=C2\CCC(CN(C)C)C2=O)cc1 (centres undefined) | 5.54 µM | 56.4 µM | 15.2 µM | 28.8 | 32.6 µM | 9.27 µM | > 61.2 | 4.15 µM | 16.5 | 
C=CC1=C(C)C(/C=c2\[nH]/c(=C/c3[nH]c(CC4NC(=O)C(C)/C4=C\C)c(C)c3CCC(=O)O)c(CC(=O)O)c2C)=NC1=O (centres undefined) | > 100 µM | > 100 µM |  | > 100 | > 100 µM | > 100 µM | > 100 | > 100 µM |  | 
COC(=O)CC[C@@H](C)[C@H]1CC[C@H]2[C@@H]3CC[C@@H]4C[C@H](O)CC[C@]4(C)[C@H]3CC[C@]12C |  |  |  |  |  |  |  |  | 35.6 | 
Cc1cc(N(CCC#N)S(=O)(=O)c2ccccc2)ccc1C=Nc1ccc(C(=O)O)cc1 | 4.11 µM | 10.1 µM | 17.5 µM | 16.6 | 28.6 µM | 3.52 µM |  | 22.5 µM | > 100 | 
COc1cc2c(cc1OC)C(Cl)C(c1ccc(Br)cc1)=C2Cl (centres undefined) | 27.6 µM | 23.3 µM | 31.6 µM | 56.4 | 41.3 µM |  |  |  | 13.6 | TGI (P388 leukemia): > 100 µM; TGI (P388/ADR leukemia): > 100 µM; TGI (SN12K1 renal): 29.4 µM
CC1=C(CCC(C)CO)O[C@H]2C[C@H]3[C@@H]4CC[C@H]5C[C@@H](O)CC[C@]5(C)[C@H]4CC(=O)[C@]3(C)[C@@H]12 (some centres undefined) |  |  |  |  |  |  |  |  | 45.4 | 
